Results from ChEMBL document CHEMBL1212712, “A pulse at the heart of targeted therapy” (Nat Chem Biol, 2009).
pIC50: −log10 of the molar value.

Key:
[1] = Cmax in chronic myeloid leukemia patient; format: ADME, organism-based; settings: human, in vivo
[2] = Antiproliferative activity against human CML cells; format: functional, cell-based; settings: Leukemia cell
[3] = Half life in chronic myeloid leukemia patient; format: ADME, organism-based; settings: human, in vivo

Cmax [1] [nM] | half-life [3] [h] | Compound | pIC50 [2]
200 | 3 | Cc1nc(Nc2ncc(C(=O)Nc3c(C)cccc3Cl)s2)cc(N2CCN(CCO)CC2)n1.O [DASATINIB] | 9.00
2000 |  | Cc1ccc(NC(=O)c2ccc(CN3CCN(C)CC3)cc2)cc1Nc1nccc(-c2cccnc2)n1 [IMATINIB] | 6.46
